Results as given in US9950048B2, “Immunogenic epitopes for immunotherapy” (immatics biotechnologies GmbH, priority 2007, dated 2018).
Ends that are not written are not given here.

Legend:
[1] = tested on: CD8+ T cells of healthy HLA-A*02+ donors; assay: In vitro priming of CD8+ T cells with pMHC/anti-CD28 coated beads (high density), tetramer analysis; format: cell-based, human; conditions: for Immunogenicity detected: at least one well with ≥1% specific tetramer+ among CD8+ T-cells and ≥10× median of negative controls; for Positive donors/donors tested / Positive donors/donors tested (%) / Positive wells/wells tested / Positive wells/wells tested (%): high density beads
Description: To perform in vitro stimulations by artificial antigen presenting cells (aAPC) loaded with peptide-MHC complex (pMHC) and anti-CD28 antibody, first PBMCs (peripheral blood mononuclear cells) were isolated from fresh HLA-A*02+ buffy coats by using standard density gradient separation medium (PAA, Cölbe, Germany). Buffy coats were either obtained from the Blood Bank Tübingen or from the Katharinenhospital Stuttgart. Isolated PBMCs were incubated overnight in T-cell medium (TCM) for human in vitro priming consisting of RPMI-Glutamax (Invitrogen, Karlsruhe, Germany) supplemented with 10% heat inactivated human AB serum (PAA, Cölbe, Germany), 100 U/ml Penicillin/100 μg/ml Streptomycin (Cambrex, Verviers, Belgium), 1 mM sodium pyruvate (CC Pro, Neustadt, Germany) and 20 μg/ml Gentamycin (Cambrex). CD8+ lymphocytes were isolated using the CD8+ MACS positive selection kit (Miltenyi, Bergisch Gladbach, Germany) according to the manufacturer's instructions. Obtained CD8+ T-cells were incubated until use in TCM supplemented with 2.5 ng/ml IL-7 (PromoCell, Heidelberg, Germany) and 10 U/ml IL-2 (Chiron, Munich, Gemany). Generation of pMHC/anti-CD28 coated beads, T-cell stimulations and readout was performed as described before (Walter, S, et al., 2003, J. Immunol., 171, 4974-4978) with minor modifications. Briefly, biotinylated recombinant HLA-A*0201 molecules lacking the transmembrane domain and being biotinylated at the carboxy terminus of the heavy chain were produced following a method described by (Altman, J D, et al., 1996, Science, 274, 94-96). The purified costimulatory mouse IgG2a anti human CD28 Ab 9.3 (Jung, G, Ledbetter, J A, and Muller-Eberhard, H J; 1987, Induction of cytotoxicity in resting human T lymphocytes bound to tumor cells by antibody heteroconjugates, Proc Natl Acad Sci USA, 84, 4611-4615) was chemically biotinylated using Sulfo-N-hydroxysuccinimidobiotin as recommended by the manufacturer (Perbio, Bonn, Germany).
800,000 beads/200 μl were coated in 96-well plates in the presence of 600 ng biotin anti-CD28 plus 200 ng relevant biotin-pMHC (high density beads) or 2 ng relevant plus 200 ng irrelevant (pMHC library) MHC (low density beads). Stimulations were initiated in 96-well plates by conincubating 1×10^6 CD8+ T cells with 2×10^5 washed coated beads in 200 μl TCM supplemented with 5 ng/ml IL-12 (PromoCell) for 3-4 days at 37° C. Half of the medium was then exchanged by fresh TCM supplemented with 80 U/ml IL-2 and incubation was continued for 3-4 days at 37° C. This stimulation cycle was performed for a total of three times. Finally, tetrameric analyses were performed with fluorescent MHC tetramers (produced as described by (Altman, J D, et al., 1996, Science, 274, 94-96)) plus antibody CD8-FITC clone SK1 (BD, Heidelberg, Germany) on a four-color FACSCalibur (BD). Peptide specific cells were calculated as percentage of total CD8+ T cells. Evaluation of tetrameric analysis was performed using the software FCS Express (De Novo Software). In vitro priming of specific tetramer+CD8+ lymphocytes was detected by appropriate gating and by comparison to negative control stimulations.
Peptides of the present invention were tested together with peptides of known in vivo immunogenicity for comparison. The CEA-005 peptide that was optimised for in vitro T-cell induction (Fong, L, et al., 2001, J. Immunol., 166, 4254-4259) served as control.
Results of in vitro immunogenicity experiments conducted by immatics are summarised here. Results shown have been obtained by stimulation of CD8+ cells with high density beads. As different human serum lots may highly affect the immunogenicity results, only assays in which one and the same serum lot was used, were evaluated together.

[2] = tested on: monocyte-depleted PBMCs of one healthy donor; assay: In vitro priming with peptide-pulsed autologous DCs, IFNγ ELISPOT read-out; format: cell-based, human
Description: FIG. 6 depicts the in vitro immunogenicity of TGFBI-004 as detected by IFNγ ELISPOT after five stimulation cycles.
Cells were primed and restimulated repeatedly with TGFBI-004 and then incubated with relevant TGFBI-004 (Well 1, 2, 3 and 4) and irrelevant (Neg. control) peptide, respectively. The analysis after IFNγ ELISPOT was performed on an ELISPOT Reader (CTL, Cleveland, USA). PHA-Ionomycin served as positive control. Numbers indicate the count of positive spots.
(§1) Priming and expansion of specific human CD4+ and CD8+ cells were assayed in vitro by priming of monocyte-depleted PBMCs with autologous DCs and restimulation with autologous PBMCs. […] As a read-out system, IFNγ production upon short term restimulation was assessed by ELISPOT and flow cytometry. T cells were analysed after […] stimulations by ELISPOT and intracellular IFNγ staining plus CD4-FITC and CD8-PerCP to determine the percentage of IFNγ-producing cells in specific T-cell subpopulations. In this experiment, cells stimulated with TGFBI-004 peptide from different wells were pooled, incubated with irrelevant peptide for the read-out and performed as negative controls. […]
(§2) To generate CD4+ T cells, 3 Million PBMCs/PBLs were stimulated with 2×10^5 autologuous DCs. […] After being washed with DC medium, cell number was determined. […]

[3] = tested on: monocyte-depleted PBMCs of one healthy donor; assay: In vitro priming with peptide-pulsed autologous DCs, intracellular IFNγ staining (ICS) read-out; format: cell-based, human
Description: FIGS. 7a and 7b depict the in vitro immunogenicity of TGFBI-004 as detected by ICS after five stimulation cycles.
Cells were primed with TGFBI-004-loaded autologous DCs and restimulated repeatedly with autologous PBMCs plus TGFBI-004. For the read-out cells were incubated with relevant TGFBI-004 (Well 1, 2, 3 and 4) and irrelevant (Neg. Control) peptide, respectively. Additionally to the intracellular IFNγ staining, cells were also stained with CD4-FITC and OCD8-PerCP antibodies. The analysis was performed on a four-color FACSCalibur cytometer (BD Biosciences, Germany).
as §1, §2

[4] = Particle size/shape measurement and analytical HPLC of reconstituted IMA910 suspension; format: physicochemical; conditions: analytical HPLC of suspension
Description: Particle size distribution and particle shape measurement of the particles obtained after reconstitution have been performed by capturing direct images of each individual particle in the range of 0.25 to 100 μm followed by image analysis.
Furthermore, analytical HPLC was performed for a closer characterization of the obtained suspension.
IMA910 is dissolved in 700 μL sodium hydrogen carbonate (4.2%).

Substance	Immunogenicity detected [1]	induction of CD4+ and CD8+ T cell responses ([2]; one donor tested, autologous system)	T-cell lines with T-cell responses detected via ELISPOT ([2]; one healthy donor, IFNγ ELISPOT)	T-cell lines with specific IFNγ producing CD4+ and/or CD8+ cells via ICS [3]	Positive donors/donors tested [1]	Positive donors/donors tested (%) [1]	Positive wells/wells tested [1]	Positive wells/wells tested (%) [1]	amount of peptide found in the particles [4]
KLTDIQIEL (listed as Homo sapiens) [JAK-001]	yes	–	–	–	–	–	–	–	–
TPPIDAHTRNLLRNH (listed as Homo sapiens) [TGFBI-004]	–	able to elicit CD4+ and CD8+ T cell responses	2 out of 4	3 out of 4	–	–	–	–	–
KLMDLDVEQL [PCN-001]	yes	–	–	–	3/4	(75%)	4/42	(10%)	–
ALTTLMHQL (listed as Homo sapiens) [PTP-001]	yes	–	–	–	–	–	–	–	–
SLWAGVVVL (listed as Homo sapiens) [CHI-001]	yes	–	–	–	–	–	–	–	–
CCN-001: 9 amino acid peptide in vaccine IMA910, supplied as chloride salt (LLGATCMFV; also: chloride salt) [reference compound]	yes	–	–	–	5/5	(100%)	42/54	(78%)	low amounts
ALSNLEVTL [Peptide C20-001]	yes	–	–	–	1/5	(20%)	1/60	(2%)	–
KIFDEILVNA [TOP-001]	yes	–	–	–	2/5	(40%)	7/72	(10%)	low amounts
